The values below come from US4771062A, “Diaryl sulphide derivatives” (Bayer Aktiengesellschaft, priority 1986, dated 1988).

Structures can show the parent of a compound that is named as a salt.

Broadly, the IC50 is the concentration needed to halve the response being measured. A lower IC50 goes with greater potency.

Tested on in the first data set: not listed separately
Put plainly: appearance of the isolated salt in air (hygroscopicity). The class given is physicochemical. The following applies: after lyophilization. The method, then: 3 g of bis[4-(Δ^2 -thiazolin-2-yl)aminophenyl]sulphide are taken up in 0.6 ml of 1N HCl and 10 ml of H2 O and the mixture is lyophilized.
Take `c1cc(Sc2ccc(NC3=NCCS3)cc2)ccc1NC1=NCCS1` [Example 3, Bis[4-(Δ^2-thiazolin-2-yl)aminophenyl]sulphide HCl salt]: the hygroscopicity result is listed as “Hygroscopic crystals which deliquesce in air”.

In another data set the target is T1, lipoxygenase activity of PMN (Rattus norvegicus, UniProt P12527).
T1 construct: lipoxygenase activity of PMN in rats; endogenous in cells; host or cells: rat PMN (polymorphonuclear leucocytes)
T1 sequence (P12527 1-673): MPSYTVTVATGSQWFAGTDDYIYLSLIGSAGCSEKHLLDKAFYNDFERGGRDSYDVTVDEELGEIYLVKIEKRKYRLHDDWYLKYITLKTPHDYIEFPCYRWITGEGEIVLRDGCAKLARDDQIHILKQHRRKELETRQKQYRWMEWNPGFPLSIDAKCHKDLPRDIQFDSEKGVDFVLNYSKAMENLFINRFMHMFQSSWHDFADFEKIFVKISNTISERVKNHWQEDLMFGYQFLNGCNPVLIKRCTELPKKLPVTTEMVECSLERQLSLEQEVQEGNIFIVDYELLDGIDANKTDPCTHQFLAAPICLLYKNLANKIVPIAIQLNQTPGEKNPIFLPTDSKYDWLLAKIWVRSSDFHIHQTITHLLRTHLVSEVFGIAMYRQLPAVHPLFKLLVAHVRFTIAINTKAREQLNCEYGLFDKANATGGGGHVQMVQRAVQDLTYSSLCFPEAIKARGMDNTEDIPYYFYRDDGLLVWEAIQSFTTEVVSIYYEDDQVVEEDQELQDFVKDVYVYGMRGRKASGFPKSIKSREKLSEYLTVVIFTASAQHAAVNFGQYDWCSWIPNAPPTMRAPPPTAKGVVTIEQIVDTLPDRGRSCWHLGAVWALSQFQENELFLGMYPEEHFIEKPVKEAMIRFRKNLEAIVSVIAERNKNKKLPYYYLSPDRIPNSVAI
Briefly: LTB4 formed after stimulation with Ca-ionophor, determined by reversed phase HPLC, as a measure of the lipoxygenase activity of PMN. The class given is cell-based, rats. The settings on record: LTB4 formation, Ca-ionophor stimulated rat PMN. The procedure:
The pharmacological action of the substances according to the invention was determined by the following method:
The leucotriene B4 (LTB4) formed after stimulation with Ca-ionophor is determined by means of reversed phase HPLC in accordance with the method of Borgeat et al. Proc. Natl. Acad. Sci. USA, 76, 215 (1982) as a measure of the lipoxygenase activity of PMN in rats.
`c1cc(Sc2ccc(NC3=NCCS3)cc2)ccc1NC1=NCCS1` [Example 2, Bis[4-(Δ^2-thiazolin-2-yl)aminophenyl]sulphide] had an IC50 of 0.349 µM.
As to `c1cc(Sc2ccc(NC3=NCCS3)cc2)ccc1NC1=NCCS1` [Example 3, Bis[4-(Δ^2-thiazolin-2-yl)aminophenyl]sulphide HCl salt], the half-maximal inhibitory concentration (IC50) was 0.776 µM.
On the same count and under the same terms, the result for `c1ccc(C2CSC(Nc3ccc(Sc4ccc(NC5=NC(c6ccccc6)CS5)cc4)cc3)=N2)cc1` (stereo not drawn) [Example 4, Bis[4-(4-phenyl-Δ^2-thiazolin-2-yl)aminophenyl]sulphide] reads 0.501 µM.
On to `COC(=O)Cc1cc(NC2=NCCS2)ccc1Sc1ccccc1` [Example 10, Methyl[2-phenylthio-5-(Δ^2-thiazolin-2-yl)amino]phenylacetate], for which the midpoint of inhibition, the IC50, lay at 0.209 µM.
As to `c1ccc(Sc2ccc(NC3=NCCS3)cc2)cc1` [Example 12], it took 0.0978 µM to reach half-maximal inhibition (IC50).
The same measure, in the same setting: the result for `CN1CCSC1=Nc1ccc(Sc2ccc(N=C3SCCN3C)cc2)cc1` [Example 17, Bis[4-(3-methyl-thiazolidin-2-imino)phenyl]sulphide] reads 0.265 µM; that for `CC1CN=C(Nc2ccc(Sc3ccc(NC4=NCC(C)S4)cc3)cc2)S1` (stereo not drawn) [Example 22, Bis[4-(5-methyl-Δ^2-thiazolin-2-yl)aminophenyl]sulphide], 0.123 µM; that for `Cc1ccc(S(=O)(=O)Nc2ccc(Sc3ccc(NC4=NCCS4)cc3)cc2)cc1` [Example 29, 4-(Δ^2 -Thiazolin-2-yl)amino-4'-tosylaminodiphenyl sulphide], 0.145 µM.
